Measurements published in the NIST ThermoML archive (doi:10.1021/je5010214).

Details: Liquid, Vibrating tube method

CCCCO [butan-1-ol]
Details | mass density [kg/m3]
353.15 K, 65063 kPa | 811.071
353.16 K, 2113.4 kPa | 763.181
353.16 K, 33964 kPa | 790.701
353.16 K, 62043 kPa | 809.275
353.16 K, 66024 kPa | 811.636
358.15 K, 264.1 kPa | 755.935
358.15 K, 508.4 kPa | 756.19
358.15 K, 926.8 kPa | 756.64
358.15 K, 1013.9 kPa | 756.732
358.15 K, 3021.2 kPa | 758.947
358.15 K, 4930 kPa | 760.98
358.15 K, 10073 kPa | 766.29
358.15 K, 12137 kPa | 768.259
358.15 K, 14905 kPa | 770.903
358.15 K, 17041 kPa | 772.871
358.15 K, 17965 kPa | 773.738
358.15 K, 22175 kPa | 777.415
358.15 K, 25059 kPa | 779.849
358.15 K, 28035 kPa | 782.278
358.15 K, 30002 kPa | 783.844
358.15 K, 31978 kPa | 785.37
358.15 K, 32793 kPa | 786.01
358.15 K, 33850 kPa | 786.716
358.15 K, 35027 kPa | 787.554
358.15 K, 37872 kPa | 789.731
358.15 K, 40037 kPa | 791.31
358.15 K, 42100 kPa | 792.749
358.15 K, 47958 kPa | 796.761
358.15 K, 50038 kPa | 798.154
358.15 K, 52081 kPa | 799.474
358.15 K, 55073 kPa | 801.393
358.15 K, 57918 kPa | 803.161
358.15 K, 60043 kPa | 804.453
358.15 K, 62067 kPa | 805.674
358.15 K, 64986 kPa | 807.407
358.15 K, 66109 kPa | 808.067
358.16 K, 95.1 kPa | 755.754
358.16 K, 2083.9 kPa | 757.886
358.16 K, 6993.5 kPa | 763.142
358.16 K, 9030.2 kPa | 765.202
358.16 K, 20162 kPa | 775.665
358.16 K, 45054 kPa | 794.81
363.15 K, 94 kPa | 752.456
363.15 K, 334 kPa | 752.741
363.15 K, 601.7 kPa | 753.061
363.15 K, 892.9 kPa | 753.404
363.15 K, 961.6 kPa | 753.487
363.15 K, 1034.7 kPa | 753.567
363.15 K, 1986 kPa | 754.594
363.15 K, 2940.4 kPa | 755.648
363.15 K, 4979.2 kPa | 757.84
363.15 K, 9959.5 kPa | 762.855
363.15 K, 11971 kPa | 764.806
363.15 K, 14936 kPa | 767.534
363.15 K, 17973 kPa | 770.255
363.15 K, 19940 kPa | 771.991
363.15 K, 24872 kPa | 776.146
363.15 K, 27993 kPa | 778.673
363.15 K, 30062 kPa | 780.285
363.15 K, 31961 kPa | 781.745
363.15 K, 33033 kPa | 782.563
363.15 K, 34000 kPa | 783.178
363.15 K, 35028 kPa | 783.945
363.15 K, 37919 kPa | 786.081
363.15 K, 39916 kPa | 787.488
363.15 K, 42016 kPa | 788.986
363.15 K, 47947 kPa | 793.03
363.15 K, 50050 kPa | 794.458
363.15 K, 52023 kPa | 795.718
363.15 K, 54940 kPa | 797.589
363.15 K, 57917 kPa | 799.479
363.15 K, 59980 kPa | 800.724
363.15 K, 62043 kPa | 802.008
363.15 K, 64924 kPa | 803.734
363.15 K, 66088 kPa | 804.418
363.16 K, 6920.2 kPa | 759.821
363.16 K, 8964.8 kPa | 761.886
363.16 K, 21933 kPa | 773.696
363.16 K, 44987 kPa | 791.029
